Results as given in US20260297085A1, “1 H-PYRROLO[2,3-B]PYRIDIN-4-YL]-2-OXOPYRROLIDINE-3-CARBONITRILE DERIVATIVES AS TYROSINE KINASE 2 (TYK2) INHIBITORS FOR THE TREATMENT OF INFLAMMATORY DISEASES” (BIOGEN MA INC., priority 2023, published 2026).
pIC50: −log10 of the molar value.

Columns and labels:
[1] = target: T1, human JAK2 kinase domain (JH1) (Homo sapiens, UniProt O60674); assay: JH1 biochemical assay for JAK2 (ADP-Glo kinase assay, recombinant JH1 catalytic domain, JAK3-974 peptide, 15 μM ATP)
T1 construct: recombinantly generated catalytic kinase (also known as JH1) domain of human JAK1, JAK2, JAK3 and TYK2
Procedure, shortened: (§1)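 Reactions ran 100 min with 50 μM substrate peptide (JAK3-342 for JAK1 at 4 nM enzyme; JAK3-974 for JAK2 0.2 nM, JAK3 0.3 nM, TYK2 2 nM), and ADP formed was read by ADP-Glo luminescence. Eleven-point 3-fold series from 10 or 1 μM; IC50 fitted by 4-parameter logistic model.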

[2] = target: T2, human TYK2 kinase domain (JH1) (Homo sapiens, UniProt P29597); assay: JH1 biochemical assay for TYK2 (ADP-Glo kinase assay, recombinant JH1 catalytic domain, JAK3-974 peptide, 10 μM ATP)
T2 construct: recombinantly generated catalytic kinase (also known as JH1) domain of human JAK1, JAK2, JAK3 and TYK2
T2 sequence (P29597 897-1176 limits assumed): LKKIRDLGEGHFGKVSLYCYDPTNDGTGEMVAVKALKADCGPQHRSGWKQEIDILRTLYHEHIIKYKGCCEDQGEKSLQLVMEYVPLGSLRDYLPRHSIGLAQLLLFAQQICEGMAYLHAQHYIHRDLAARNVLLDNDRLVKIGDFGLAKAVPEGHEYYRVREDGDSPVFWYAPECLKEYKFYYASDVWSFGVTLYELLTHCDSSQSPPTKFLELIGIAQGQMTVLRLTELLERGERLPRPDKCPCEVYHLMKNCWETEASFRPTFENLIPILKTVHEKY
Procedure, shortened: as §1

[3] = target: T3, human JAK3 kinase domain (JH1) (Homo sapiens, UniProt P52333); assay: JH1 biochemical assay for JAK3 (ADP-Glo kinase assay, recombinant JH1 catalytic domain, JAK3-974 peptide, 4 μM ATP)
T3 construct: recombinantly generated catalytic kinase (also known as JH1) domain of human JAK1, JAK2, JAK3 and TYK2
Procedure, shortened: as §1

[4] = target: JAK1 kinase activity on STAT3 in TF1 cells (Homo sapiens, UniProt P23458); assay: pSTAT3 cell assay (MSD; TF1 cells, 30 ng/mL IL-6 stimulation); assay type: cell-based; details: 30 ng/mL IL-6, 15 minutes
Procedure, shortened: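 Serum-starved TF1 cells with endogenous JAK1/STAT3 were pretreated 1 h with compound in a 10-point four-fold dilution series from 10 μM, then stimulated with 30 ng/mL IL-6 for 15 min. pSTAT3 in lysates was quantified by MSD immunoassay, and IC50 came from 4-parameter logistic fits.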

[5] = target: T4, human JAK1 kinase domain (JH1) (Homo sapiens, UniProt P23458); assay: JH1 biochemical assay for JAK1 (ADP-Glo kinase assay, recombinant JH1 catalytic domain, JAK3-342 peptide, 35 μM ATP)
T4 construct: recombinantly generated catalytic kinase (also known as JH1) domain of human JAK1, JAK2, JAK3 and TYK2
Procedure, shortened: as §1

[6] = target: Tyk2 kinase activity on STAT4 in NK92 cells (Homo sapiens, UniProt P29597); assay: pSTAT4 cell assay (MSD; NK92 cells, 30 ng/mL IL2 stimulation); assay type: cell-based; details: 30 ng/mL IL2, 15 minutes
Procedure, shortened: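 NK92, serum-starved; cpd 1 hr, 10-pt 4-fold from 10 μM; IL2 30 ng/mL 15 min; lyse; MSD with anti-STAT4 Abs; IC50 by 4-PL fit.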

[7] = target: JAK2 kinase activity on STAT5 in TF1 cells (Homo sapiens, UniProt O60674); assay: pSTAT5 cell assay (MSD; TF1 cells, 30 ng/mL IL-3 stimulation); assay type: cell-based; details: 30 ng/mL IL-3, 15 minutes
Procedure, shortened: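 Serum-starved TF1 cells with native JAK2/STAT5 were pretreated 1 h with compound (10-point four-fold dilutions from 10 μM), then stimulated 15 min with 30 ng/mL IL-3. pSTAT5 in lysates quantified by MSD immunoassay; normalized percent activity fitted to a 4-parameter logistic curve for IC50.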

Chain of JAK1 kinase activity on STAT3 in TF1 cells (P23458 whole entry): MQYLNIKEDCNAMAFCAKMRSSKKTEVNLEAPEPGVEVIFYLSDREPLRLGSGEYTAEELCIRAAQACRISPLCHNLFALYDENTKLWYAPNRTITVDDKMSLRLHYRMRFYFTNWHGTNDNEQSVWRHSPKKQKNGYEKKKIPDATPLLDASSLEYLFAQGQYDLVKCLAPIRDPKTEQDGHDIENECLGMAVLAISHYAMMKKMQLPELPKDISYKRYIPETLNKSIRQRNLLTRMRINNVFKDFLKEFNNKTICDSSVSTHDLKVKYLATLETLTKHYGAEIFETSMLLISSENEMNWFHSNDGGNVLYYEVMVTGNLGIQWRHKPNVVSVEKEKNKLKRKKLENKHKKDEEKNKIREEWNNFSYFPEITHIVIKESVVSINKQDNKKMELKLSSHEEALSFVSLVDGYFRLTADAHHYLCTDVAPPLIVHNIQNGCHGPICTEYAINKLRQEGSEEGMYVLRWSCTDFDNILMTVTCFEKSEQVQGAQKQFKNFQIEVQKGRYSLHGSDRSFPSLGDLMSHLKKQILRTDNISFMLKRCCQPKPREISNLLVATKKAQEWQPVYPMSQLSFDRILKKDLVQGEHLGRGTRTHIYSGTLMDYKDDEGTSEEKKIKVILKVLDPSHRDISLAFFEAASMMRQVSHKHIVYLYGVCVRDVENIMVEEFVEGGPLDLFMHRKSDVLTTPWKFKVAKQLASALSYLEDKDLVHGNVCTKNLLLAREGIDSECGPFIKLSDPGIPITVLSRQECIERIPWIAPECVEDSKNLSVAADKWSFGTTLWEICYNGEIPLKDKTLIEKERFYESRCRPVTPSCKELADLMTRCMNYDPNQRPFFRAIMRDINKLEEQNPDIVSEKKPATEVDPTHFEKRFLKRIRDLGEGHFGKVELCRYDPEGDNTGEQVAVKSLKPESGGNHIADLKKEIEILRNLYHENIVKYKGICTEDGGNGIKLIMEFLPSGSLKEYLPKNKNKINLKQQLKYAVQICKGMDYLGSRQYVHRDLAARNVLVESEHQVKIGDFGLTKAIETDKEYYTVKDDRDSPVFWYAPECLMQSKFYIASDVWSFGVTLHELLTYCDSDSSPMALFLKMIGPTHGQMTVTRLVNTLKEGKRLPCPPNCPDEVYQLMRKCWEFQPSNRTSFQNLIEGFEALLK
Chain of JAK2 kinase activity on STAT5 in TF1 cells (O60674 whole entry): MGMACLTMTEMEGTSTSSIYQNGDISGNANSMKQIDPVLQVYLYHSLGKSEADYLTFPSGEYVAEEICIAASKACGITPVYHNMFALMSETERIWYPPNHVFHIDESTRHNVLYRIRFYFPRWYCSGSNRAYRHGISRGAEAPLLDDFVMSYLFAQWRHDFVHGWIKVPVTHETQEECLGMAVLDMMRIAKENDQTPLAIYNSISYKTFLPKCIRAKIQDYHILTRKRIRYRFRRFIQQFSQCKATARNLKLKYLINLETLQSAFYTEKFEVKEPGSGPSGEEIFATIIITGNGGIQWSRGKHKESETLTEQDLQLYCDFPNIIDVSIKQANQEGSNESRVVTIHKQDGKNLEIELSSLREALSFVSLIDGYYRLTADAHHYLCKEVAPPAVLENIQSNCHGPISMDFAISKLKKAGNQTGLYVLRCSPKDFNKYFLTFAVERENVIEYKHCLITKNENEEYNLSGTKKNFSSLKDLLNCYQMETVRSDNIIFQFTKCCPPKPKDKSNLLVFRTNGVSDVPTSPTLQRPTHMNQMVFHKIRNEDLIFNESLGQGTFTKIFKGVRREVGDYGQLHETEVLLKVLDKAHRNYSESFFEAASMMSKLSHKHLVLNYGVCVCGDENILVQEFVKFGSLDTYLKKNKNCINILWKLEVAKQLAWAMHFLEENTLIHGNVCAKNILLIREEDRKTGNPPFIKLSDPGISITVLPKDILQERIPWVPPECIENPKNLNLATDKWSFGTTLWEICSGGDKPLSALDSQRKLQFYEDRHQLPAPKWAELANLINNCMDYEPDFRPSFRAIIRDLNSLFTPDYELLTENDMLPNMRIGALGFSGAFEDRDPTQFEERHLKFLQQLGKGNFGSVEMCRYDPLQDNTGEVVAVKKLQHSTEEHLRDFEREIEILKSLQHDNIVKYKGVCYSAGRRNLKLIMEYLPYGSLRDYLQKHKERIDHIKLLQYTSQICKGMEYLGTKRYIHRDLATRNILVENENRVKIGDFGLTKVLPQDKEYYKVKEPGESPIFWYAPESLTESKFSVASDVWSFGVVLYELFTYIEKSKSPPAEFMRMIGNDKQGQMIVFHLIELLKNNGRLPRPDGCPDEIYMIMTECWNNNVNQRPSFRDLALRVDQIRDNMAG
Chain of Tyk2 kinase activity on STAT4 in NK92 cells (P29597 whole entry): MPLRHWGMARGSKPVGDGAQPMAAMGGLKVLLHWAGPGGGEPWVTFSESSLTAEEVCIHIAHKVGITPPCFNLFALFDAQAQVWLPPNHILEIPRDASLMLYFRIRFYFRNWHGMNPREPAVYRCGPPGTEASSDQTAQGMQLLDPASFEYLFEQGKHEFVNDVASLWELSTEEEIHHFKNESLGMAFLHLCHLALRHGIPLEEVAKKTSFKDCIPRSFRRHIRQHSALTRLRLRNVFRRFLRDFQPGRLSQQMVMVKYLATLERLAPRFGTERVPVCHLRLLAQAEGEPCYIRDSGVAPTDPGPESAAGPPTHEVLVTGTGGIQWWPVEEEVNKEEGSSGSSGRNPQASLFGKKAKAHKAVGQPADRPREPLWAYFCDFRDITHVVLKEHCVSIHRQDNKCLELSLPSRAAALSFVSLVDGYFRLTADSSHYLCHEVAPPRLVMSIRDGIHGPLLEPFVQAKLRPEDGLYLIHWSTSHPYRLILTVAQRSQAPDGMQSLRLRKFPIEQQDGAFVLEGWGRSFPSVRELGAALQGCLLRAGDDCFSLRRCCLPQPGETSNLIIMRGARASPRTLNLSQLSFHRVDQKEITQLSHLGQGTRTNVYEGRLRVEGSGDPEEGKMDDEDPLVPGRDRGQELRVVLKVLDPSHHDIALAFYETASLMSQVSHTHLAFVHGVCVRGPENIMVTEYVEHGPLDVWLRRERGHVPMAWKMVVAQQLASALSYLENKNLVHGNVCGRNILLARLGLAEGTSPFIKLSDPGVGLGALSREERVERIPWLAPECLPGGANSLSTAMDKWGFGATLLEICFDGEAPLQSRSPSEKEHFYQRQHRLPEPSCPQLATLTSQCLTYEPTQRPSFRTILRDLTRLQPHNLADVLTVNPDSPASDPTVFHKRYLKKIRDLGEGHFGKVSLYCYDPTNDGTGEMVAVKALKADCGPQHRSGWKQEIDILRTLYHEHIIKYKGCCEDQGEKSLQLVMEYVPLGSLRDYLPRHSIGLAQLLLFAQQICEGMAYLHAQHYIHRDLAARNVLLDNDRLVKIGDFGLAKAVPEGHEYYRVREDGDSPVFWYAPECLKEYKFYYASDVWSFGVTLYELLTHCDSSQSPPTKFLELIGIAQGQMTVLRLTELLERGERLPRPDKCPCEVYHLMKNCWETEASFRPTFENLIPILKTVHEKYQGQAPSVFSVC
T4 sequence (P23458 875-1153 limits assumed): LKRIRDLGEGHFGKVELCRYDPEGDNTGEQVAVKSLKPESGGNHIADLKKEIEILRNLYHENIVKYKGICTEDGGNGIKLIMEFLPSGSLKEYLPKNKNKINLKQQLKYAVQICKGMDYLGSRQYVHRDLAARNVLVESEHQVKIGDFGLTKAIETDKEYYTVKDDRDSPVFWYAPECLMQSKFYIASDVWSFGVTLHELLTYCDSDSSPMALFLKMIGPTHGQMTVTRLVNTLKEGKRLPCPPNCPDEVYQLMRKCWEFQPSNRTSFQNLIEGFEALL
T1 sequence (O60674 849-1124 limits assumed): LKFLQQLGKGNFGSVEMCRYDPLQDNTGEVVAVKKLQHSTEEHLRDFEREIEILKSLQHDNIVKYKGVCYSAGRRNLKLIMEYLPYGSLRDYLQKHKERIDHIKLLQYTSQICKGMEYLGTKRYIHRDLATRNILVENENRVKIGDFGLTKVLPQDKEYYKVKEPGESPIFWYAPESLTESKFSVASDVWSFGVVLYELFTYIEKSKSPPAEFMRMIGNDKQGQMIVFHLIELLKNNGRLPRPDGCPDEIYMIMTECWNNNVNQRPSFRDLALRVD
T3 sequence (P52333 822-1111 limits assumed): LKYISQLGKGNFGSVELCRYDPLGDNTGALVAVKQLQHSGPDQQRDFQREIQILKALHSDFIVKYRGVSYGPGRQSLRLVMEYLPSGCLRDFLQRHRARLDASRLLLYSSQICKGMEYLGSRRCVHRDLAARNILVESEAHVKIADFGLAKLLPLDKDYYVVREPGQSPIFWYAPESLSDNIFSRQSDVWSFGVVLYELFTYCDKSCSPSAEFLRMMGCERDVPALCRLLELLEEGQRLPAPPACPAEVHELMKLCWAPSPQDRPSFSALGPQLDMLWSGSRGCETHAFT

pIC50 ([1]; JH1 kinase domain, ADP-Glo)	pIC50 ([2]; JH1 kinase domain, ADP-Glo)	pIC50 ([3]; JH1 kinase domain, ADP-Glo)	pIC50 [4]	pIC50 ([5]; JH1 kinase domain, ADP-Glo)	pIC50 [6]	pIC50 [7]	pIC50 ([1]; JAK2 JH1, ADP-Glo)	pIC50 ([2]; TYK2 JH1, ADP-Glo)	pIC50 ([3]; JAK3 JH1, ADP-Glo)	pIC50 ([5]; JAK1 JH1, ADP-Glo)	SMILES
6.00 to 7.00	7.70 to 8.30	6.00 to 7.00	5.00 to 5.30	6.00 to 7.00	< 7.00	< 5.00	–	–	–	–	C[C@@H]1CN(c2ccnn3cc(-c4cnn5c4CCC5)cc23)C(=O)[C@]1(C#N)C1CC1 [Example 171, (3R,4S)-3-cyclopropyl-1-(6-(5,6-dihydro-4H-pyrrolo[1,2-b]pyrazol-3-yl)pyrrolo[1,2-b]pyridazin-4-yl)-4-methyl-2-oxopyrrolidine-3-carbonitrile]
> 7.00	> 8.30	> 7.00	5.30 to 6.00	> 7.00	7.00 to 7.30	5.30 to 6.00	–	–	–	–	C[C@@H]1CN(c2nc(-c3cnc4c(c3)CCC(=O)N4)cn3nccc23)C(=O)[C@]1(C#N)C1CC1 [Example 204, (3R,4S)-3-cyclopropyl-4-methyl-2-oxo-1-(6-(7-oxo-5,6,7,8-tetrahydro-1,8-naphthyridin-3-yl)pyrazolo[1,5-a]pyrazin-4-yl)pyrrolidine-3-carbonitrile]
–	–	–	6.00 to 7.00	–	7.30 to 7.70	6.00 to 7.00	> 7.00	> 8.30	> 7.00	> 7.00	C[C@@H]1CN(c2nc(-c3cnn([C@H]4C[C@H](C#N)C4)c3)cn3ncc(F)c23)C(=O)[C@]1(C#N)C1CC1 [Example 293, (3R,4S)-1-(6-(1-((1r,3R)-3-cyanocyclobutyl)-1H-pyrazol-4-yl)-3-fluoropyrazolo[1,5-a]pyrazin-4-yl)-3-cyclopropyl-4-methyl-2-oxopyrrolidine-3-carbonitrile]
5.30 to 6.00	7.70 to 8.30	6.00 to 7.00	5.00 to 5.30	6.00 to 7.00	< 7.00	< 5.00	–	–	–	–	C[C@@H]1CN(c2ccnn3cc(-c4cccc5c4cnn5C)cc23)C(=O)[C@]1(C#N)C1CC1 [Example 54, (3R,4S)-3-cyclopropyl-4-methyl-1-(6-(1-methyl-1H-indazol-4-yl)pyrrolo[1,2-b]pyridazin-4-yl)-2-oxopyrrolidine-3-carbonitrile]
6.00 to 7.00	7.70 to 8.30	6.00 to 7.00	6.00 to 7.00	> 7.00	7.00 to 7.30	5.00 to 5.30	–	–	–	–	C[C@@H]1CN(c2ccnn3cc(-c4ccc5cnn(C)c5c4)cc23)C(=O)[C@]1(C#N)C1CC1 [Example 68, (3R,4S)-3-cyclopropyl-4-methyl-1-(6-(1-methyl-1H-indazol-6-yl)pyrrolo[1,2-b]pyridazin-4-yl)-2-oxopyrrolidine-3-carbonitrile]
–	–	–	5.30 to 6.00	–	7.00 to 7.30	6.00 to 7.00	> 7.00	> 8.30	> 7.00	> 7.00	C[C@@H]1CN(c2ccnn3cc(-c4cnn([C@H]5COCC(F)(F)C5)c4)cc23)C(=O)[C@]1(C#N)C1CC1 (single isomer, unassigned) [Example 327]
6.00 to 7.00	7.70 to 8.30	6.00 to 7.00	< 5.00	6.00 to 7.00	< 7.00	< 5.00	–	–	–	–	C[C@@H]1CN(c2ccnn3cc(-c4ccn(C)n4)cc23)C(=O)[C@]1(C#N)C1CC1 [Example 63, (3R,4S)-3-cyclopropyl-4-methyl-1-(6-(1-methyl-1H-pyrazol-3-yl)pyrrolo[1,2-b]pyridazin-4-yl)-2-oxopyrrolidine-3-carbonitrile]
> 7.00	> 8.30	> 7.00	6.00 to 7.00	> 7.00	7.30 to 7.70	6.00 to 7.00	–	–	–	–	[2H]C([2H])([2H])n1cc(-c2cn3nccc3c(N3C[C@@H](C)[C@@](C#N)(C4CC4)C3=O)n2)cn1 [Example 201, (3R,4S)-3-cyclopropyl-4-methyl-1-(6-(1-(methyl-d3)-1H-pyrazol-4-yl)pyrazolo[1,5-a]pyrazin-4-yl)-2-oxopyrrolidine-3-carbonitrile]
6.00 to 7.00	> 8.30	6.00 to 7.00	5.30 to 6.00	6.00 to 7.00	7.00 to 7.30	5.30 to 6.00	–	–	–	–	C[C@@H]1CN(c2ccnn3cc(-c4ccc(N(C)C)nc4)cc23)C(=O)[C@]1(C#N)C1CC1 [Example 62, (3R,4S)-3-cyclopropyl-1-(6-(6-(dimethylamino)pyridin-3-yl)pyrrolo[1,2-b]pyridazin-4-yl)-4-methyl-2-oxopyrrolidine-3-carbonitrile]
6.00 to 7.00	7.70 to 8.30	6.00 to 7.00	5.30 to 6.00	6.00 to 7.00	< 7.00	5.00 to 5.30	–	–	–	–	Cn1cc(-c2cc3c(N4CC[C@@](C#N)(C5CC5)C4=O)ccnn3c2)cn1 [Example 9, (S)-3-cyclopropyl-1-(6-(1-methyl-1H-pyrazol-4-yl)pyrrolo[1,2-b]pyridazin-4-yl)-2-oxopyrrolidine-3-carbonitrile]
6.00 to 7.00	> 8.30	6.00 to 7.00	5.30 to 6.00	> 7.00	7.70 to 8.30	5.30 to 6.00	–	–	–	–	C[C@@H]1CN(c2ccnn3cc(-c4cnn(C5CC5(F)F)c4)cc23)C(=O)[C@]1(C#N)C1CC1 (mixture of isomers) [Example 154, (3R,4S)-3-cyclopropyl-1-(6-(1-(2,2-difluorocyclopropyl)-1H-pyrazol-4-yl)pyrrolo[1,2-b]pyridazin-4-yl)-4-methyl-2-oxopyrrolidine-3-carbonitrile]
6.00 to 7.00	7.70 to 8.30	> 7.00	5.30 to 6.00	> 7.00	< 7.00	< 5.00	–	–	–	–	C[C@@H]1CN(c2nc(-c3cnn4c3COCC4)cn3ncc(F)c23)C(=O)[C@]1(C#N)C1CC1 [Example 192, (3R,4S)-3-cyclopropyl-1-(6-(6,7-dihydro-4H-pyrazolo[5,1-c][1,4]oxazin-3-yl)-3-fluoropyrazolo[1,5-a]pyrazin-4-yl)-4-methyl-2-oxopyrrolidine-3-carbonitrile]
–	–	–	6.00 to 7.00	–	7.30 to 7.70	5.30 to 6.00	> 7.00	> 8.30	> 7.00	> 7.00	C[C@@H]1CN(c2nc(-c3cnn([C@H]4CO[C@@H]4C)c3)cn3ncc(F)c23)C(=O)[C@]1(C#N)C1CC1 (relative stereo) [Example 306, (3R,4S)-3-cyclopropyl-1-(3-fluoro-6-(1-((2R,3 S)-2-methyloxetan-3-yl)-1H-pyrazol-4-yl)pyrazolo[1,5-a]pyrazin-4-yl)-4-methyl-2-oxopyrrolidine-3-carbonitrile and (3R,4S)-3-cyclopropyl-1-(3-fluoro-6-(1-((2S,3R)-2-methyloxetan-3-yl)-1H-pyrazol-4-yl)pyrazolo[1,5-a]pyrazin-4-yl)-4-methyl-2-oxopyrrolidine-3-carbonitrile]
